Measured values as given in patent US11401243B2, “Quinoline derived small molecule inhibitors of nicotinamide N-methyltransferase (NNMT) and uses thereof” (priority 2017, dated 2022).

Molecular target: T1, recombinant human COMT enzyme (Homo sapiens, UniProt P21964)
T1 construct: Reaction Biology Corporation (ran the assay)
T1 sequence (P21964 1-271): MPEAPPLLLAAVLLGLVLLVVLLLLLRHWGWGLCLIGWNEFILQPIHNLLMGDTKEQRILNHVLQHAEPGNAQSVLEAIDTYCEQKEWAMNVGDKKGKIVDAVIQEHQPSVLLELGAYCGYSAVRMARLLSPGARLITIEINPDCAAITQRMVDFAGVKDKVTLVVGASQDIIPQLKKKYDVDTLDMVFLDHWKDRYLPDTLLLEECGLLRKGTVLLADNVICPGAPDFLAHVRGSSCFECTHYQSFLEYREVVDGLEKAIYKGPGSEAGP
Assay: COMT activity assay (radiometric)
Format: biochemical
Conditions: maximal tested concentration 600 μM

C[n+]1cccc2c(N)cccc21 [1j, 5-amino-1-methylquinolin-1-ium iodide]
inhibition at 600 µM: 10%
